# Source: US20240057598A1, “USE OF 2-AMINO-3-METHYLHEXANOIC ACID AS PLANT IMMUNITY INDUCER” (NANJING AGRICULTURAL UNIVERSITY, priority 2020, published 2024)
# Tests used:
# [1] = tested on: tea "Baiye 1" cutting seedlings; assay: Induced resistance of tea to low temperature stress; format: in vivo; conditions: for PIABS / Cold injury index: tea seedlings, −4° C. for 24 h; for Cold injury index: 3 days recovery
# Method: The tea trees tested were “Baiye 1” cutting seedlings. Tea seedlings with relatively consistent growth were transplanted into a plastic pot with a diameter of 18 cm and placed in a greenhouse at a temperature of 25° C. and a humidity of 60%-70% for adaptive growth for about a week. The concentrations of 0, 1, 10, 100 and 1,000 nM were set in the experiment, and 0.02% Tween 20 was added as a surfactant. The spray treatment method was the same as that of the ryegrass in Example 4, and the low temperature stress treatment was conducted at −4° C. for 24 h. After the stress was completed, the tea seedlings were taken out and treated in the dark at room temperature for 30 min, and then the chlorophyll fluorescence parameters of the top leaves of the tea seedlings was determined using the plant efficiency analyzer Handy PEA. Then, the tea seedlings were placed in a 25° C. greenhouse to recover for 3 days, and the cold injury status was observed, counted and graded.
# [2] = tested on: "Sikang 1" cotton; assay: Induced resistance of cotton to salt stress; format: in vivo; conditions: 100 mM NaCl, three days
# Method: The experimental material was “Sikang 1” cotton, which was cultured in water in a 500 mL plastic cup, and a ½ Hoagland nutrient solution was changed every three days. When the cotton seedling grew until the second true leaf fully unfolded, the leaf surface was sprayed with 2-amino-3-methylhexanoic acid solutions. The concentrations of 0, 1, 10, 100 and 1,000 nM were set in the experiment, and 0.02% Tween 20 was added as a surfactant. The spraying was repeated once after 24 h and conducted twice in total. On the second day after the treatment, NaCl was added to the ½ Hoagland nutrient solution to a final concentration of 100 mM to conduct salt stress treatment. There were three repetitions in each treatment group. Rehydration treatment was conducted after three days of salt stress, the salt injury symptoms of cotton were observed, and the salt injury index was calculated by a formula as follows: […]
# [3] = tested on: powdery mildew fungus; assay: Induced resistance of wheat to powdery mildew fungus infection; format: in vivo
# Method: 2-amino-3-methylhexanoic acid was dissolved in distilled water and diluted with distilled water into solutions of 1 nM, 10 nM, 100 nM, 1,000 nM and 10,000 nM by gradient, and blank control was additionally set. Wheat seeds were germinated, planted in a sterilized soil culture pot and cultured in a greenhouse at 23(±1)° C. with light for 12 h. When the seedlings grew to the stage of one leaf and one bud, the stems and leaves of the wheat seedlings were sprayed with the 2-amino-3-methylhexanoic acid solutions of the above concentrations. The treatment was repeated once after 24 h and conducted twice in total. After 24 h, fresh wheat powdery mildew spores were evenly scattered on the wheat leaves in three pots, with 20 plants per pot. After 10 days, the disease grade of wheat treated at each concentration was investigated. The disease degree was recorded according to the wheat powdery mildew grading standard in the Guidelines for the Field Efficacy Trials of Pesticides (I), and the disease index and relative immune effect were calculated by a method the same as that for calculating the disease index and relative immune effect of tomato spotted wilt. At the same time, the middle segment of the last but one leaf of wheat was taken and the distribution of mycelia on the wheat leaves was observed by referring to Wolf and Fric's rapid staining method of powdery mildew. Grading standard of wheat powdery mildew (per leaf): • Grade 1: The diseased spot area accounts for 5% or less of the whole leaf area. • Grade 3: The diseased spot area accounts for 6-15% of the whole leaf area. • Grade 5: The diseased spot area accounts for 16-25% of the whole leaf area. • Grade 7: The diseased spot area accounts for 26-50% of the whole leaf area. • Grade 9: The diseased spot area accounts for 50% or more of the whole leaf area.
# [4] = tested on: Brevibacterium helvolum; conditions: cited from earlier work
# [5] = tested on: tea variety Longjing 43; assay: Field test: resistance of tea plants to high temperature and tea quality; format: in vivo; conditions: for Amino acid content: 5th day after use, tea leaves under high temperature stress; for Heat injury rate: 10th day after use, field; for PIABS: field heat stress
# Method: In August 2020, a field test was conducted in the Sun Yat-sen Mausoleum Tea Garden in Nanjing, and the tea variety was Longjing 43. During the test, the actual temperature of the field was 37.6° C.-45.1° C., the concentration of 2-amino-3-methylhexanoic acid was 0, 10, 100, 1,000 and 10,000 nM, and 0.02% Tween 20 was added as a surfactant. Three repetitions were set for each treatment group. In a plot area of 20 m^2, the liquid spraying volume per plot was 2 L. The pesticide was applied to the field three times on August 6, August 8 and Aug. 15, 2020 respectively. On the 3rd, 7th and 14th days after the last use of the pesticide, the phenotype of a tea tree was observed, and a leaf and a bud were sampled from the top of the tea tree. 15 leaves were taken for each treatment group, and the chlorophyll fluorescence parameter PIABS ([…]) of tea leaves was determined with a plant efficiency analyzer Handy-PEA. Samples were taken and the total amino acid content in tea leaves was determined on the 5th day after use of the pesticide, and the heat injury rate was calculated on the 10th day after use of the pesticide.
# [6] = 1,000 nM, tea leaves, low temperature stress
# [7] = concentration greater than 1,000 nM, susceptible wheat variety
structure (smiles),measurement,setting,value
CCCC(C)C(N)C(=O)O (stereo not drawn) [2-amino-3-methylhexanoic acid],PIABS,[1]; 1 nM,17.69 ± 2.12b
same,Cold injury index,[1]; 1 nM,45%
same,PIABS,[1]; 10 nM,21.30 ± 1.73ab
same,Cold injury index,[1]; 10 nM,30%
same,PIABS,[1]; 100 nM,27.01 ± 3.27a
same,Cold injury index,[1]; 100 nM,15%
same,Decrease of cold injury index,[1]; [6],65%
same,Increase of PIABS,[1]; [6],313%
same,PIABS,"[1]; 1,000 nM",30.42 ± 3.51a
same,Cold injury index,"[1]; 1,000 nM",10%
same,Death rate,[2]; 1 nM,50%
same,Salt injury index,[2]; 1 nM,67%
same,Death rate,[2]; 10 nM,50%
same,Salt injury index,[2]; 10 nM,63%
same,Death rate,[2]; 100 nM,33%
same,Salt injury index,[2]; 100 nM,56%
same,Death rate,"[2]; 1,000 nM",33%
same,Salt injury index,"[2]; 1,000 nM",47%
same,Relative immune effect,"[3]; 1 nM, wheat",3.5%
same,Relative immune effect,"[3]; 10 nM, wheat",15.56%
same,Relative immune effect,"[3]; 100 nM, wheat",27.63%
same,Relative immune effect,"[3]; 1,000 nM, wheat",55.06%
same,Relative immune effect,"[3]; 10,000 nM, wheat",65.37%
same,Disease index,[3]; [7],lower than 50
same,Relative immune effect,[3]; [7],more than 50%
same,Inhibitory effect,[4],no inhibitory effect
same,Amino acid content,[5]; 10 nM,2.03 ± 0.05b % DW
same,Heat injury rate,"[5]; 10 nM, tea leaves",30%
same,PIABS,"[5]; 10 nM, 3 d after last use, tea leaves",6.25 ± 0.51c
same,PIABS,"[5]; 10 nM, 7 d after last use, tea leaves",6.43 ± 0.44b
same,PIABS,"[5]; 10 nM, 14 d after last use, tea leaves",14.44 ± 0.59c
same,Increase of total amino acid content versus control group,"[5]; 10 nM, high temperature stress",22%
same,Amino acid content,[5]; 100 nM,2.21 ± 0.32a % DW
same,Heat injury rate,"[5]; 100 nM, tea leaves",17%
same,PIABS,"[5]; 100 nM, 3 d after last use, tea leaves",8.26 ± 0.63b
same,PIABS,"[5]; 100 nM, 7 d after last use, tea leaves",8.07 ± 0.36a
same,PIABS,"[5]; 100 nM, 14 d after last use, tea leaves",19.29 ± 0.95b
same,Increase of total amino acid content versus control group,"[5]; 100 nM, high temperature stress",33%
same,Amino acid content,"[5]; 1,000 nM",2.20 ± 0.05a % DW
same,Heat injury rate,"[5]; 1,000 nM, tea leaves",15%
same,PIABS,"[5]; 1,000 nM, 3 d after last use, tea leaves",8.48 ± 0.61ab
same,PIABS,"[5]; 1,000 nM, 7 d after last use, tea leaves",8.14 ± 0.70a
same,PIABS,"[5]; 1,000 nM, 14 d after last use, tea leaves",19.85 ± 1.04ab
same,Increase of total amino acid content versus control group,"[5]; 1,000 nM, high temperature stress",33%
same,PIABS higher than control group,"[5]; 10,000 nM, 3rd day after use",108%
same,Amino acid content,"[5]; 10,000 nM",2.23 ± 0.08a % DW
same,PIABS higher than control group,"[5]; 10,000 nM, 7th day after use",48%
same,Heat injury rate,"[5]; 10,000 nM, tea leaves",14%
same,PIABS higher than control group,"[5]; 10,000 nM, 14th day after use",52%
same,PIABS,"[5]; 10,000 nM, 3 d after last use, tea leaves",8.68 ± 0.56a
same,PIABS,"[5]; 10,000 nM, 7 d after last use, tea leaves",8.36 ± 0.51a
same,PIABS,"[5]; 10,000 nM, 14 d after last use, tea leaves",21.97 ± 0.88a
same,Increase of total amino acid content versus control group,"[5]; 10,000 nM, high temperature stress",34%
same,Optimum use concentration (accumulation of amino acids in tea leaves),"[5]; tea leaves, high temperature stress",100 nM
